Laboratory results published in patent US11630106B2, “Diagnostic test for distinguishing the smoking status of a subject” (PHILIP MORRIS PRODUCTS S.A., priority 2017, dated 2023).
Where two headings read alike, the source gives them in different places.

What was measured:
[1] = 24-hour urine, cited from earlier work
[2] = cited from earlier work
[3] = cited from earlier work; for levels of total NNAL: smoking cessation study
[4] = cited from earlier work; remark: listed apart in the source
[5] = Randomized, controlled, open-label, 3-arm study (CC, SA, SW): total NNAL, CEMA and free cotinine measured in urine; type: in vivo, human; conditions: for Free Cotinine (ng/mL) SA: SA arm; for concentration at 2 day: human, inhaled
Source text: The study included healthy smokers switching to a heat-not-burn (smoke-free alternative (SW)) product or those observing smoking abstinence (SA), compared with continuing to use CC, for 5 days in confinement and prolonged by 85 days in an ambulatory setting. This was an ad libitum smoking study. Baseline measurements are taken by allowing the subject to smoke their chosen brand of conventional cigarette for 2 days. After this 2 day period, the subject is then elected to continue smoking conventional cigarettes, to switch to a smoke-free alternative or to abstain from smoking. The investigational period then begins. Methods for measuring each of the metabolites are described in Haziza et al. (2017) Data in Brief 10, 283-293.
During the confinement period, compliance to product/regimen allocation (exclusive use of smoke-free alternative and CC in SW and CC arms, respectively, and full abstinence from smoking in the SA arm) was ensured by strict distribution of each tobacco stick/CC when requested by the subject. During the ambulatory period, the subjects randomized to the SW arm were instructed to exclusively use HNB products and subjects randomized to the SA arm were instructed to abstain from smoking.
Furthermore, the data are represented as boxplots in the figures below. The bottom of the box is the first quartile (value below which 25% of the observations lie), the top is the third quartile (value below which 75% of the observations lie) and the middle bar is the median of the observations. The whiskers extend to the minimum observed value and maximum observe value respectively.

[6] = cited from earlier work; remark: listed apart in the source
[7] = mice; cited from earlier work
[8] = consumers of conventional cigarettes
[9] = consumers of smoke-free alternatives
[10] = 15 CPD during 5-day confinement
[11] = 20 CPD during 5-day confinement
[12] = intravenous infusion of nicotine in abstinent adult smokers

CC(=O)N[C@@H](CSCCC#N)C(=O)O [CEMA, 2-cyanoethylmercapturic acid]
baseline CEMA, range [1, 8]: 83-115 ng/mg creatinine
baseline CEMA, value in brackets [1, 8]: 98 ng/mg creatinine
average increase at day 5 compared to baseline [1, 8]: 4.2%
change at day 5 compared to baseline, range [1, 8]: −4% to 12%
CEMA at day 5, range [1, 8]: 85-115 ng/mg creatinine
CEMA at day 5, value in brackets [1, 8]: 99.5 ng/mg creatinine
baseline CEMA, range [1, 9]: 85-112 ng/mg creatinine
baseline CEMA, value in brackets [1, 9]: 98 ng/mg creatinine
average decrease at day 5 compared to baseline [1, 9]: −86%
change at day 5 compared to baseline, range [1, 9]: −87% to −85%
CEMA at day 5, range [1, 9]: 11-15 ng/mg creatinine
CEMA at day 5, value in brackets [1, 9]: 13 ng/mg creatinine
baseline CEMA, range ([1]; smoking abstainers): 89-119 ng/mg creatinine
baseline CEMA, value in brackets ([1]; smoking abstainers): 103 ng/mg creatinine
average decrease at day 5 compared to baseline ([1]; smoking abstainers): −86%
decrease at day 5 compared to baseline, range ([1]; smoking abstainers): −88 to −85%
CEMA at day 5, range ([1]; smoking abstainers): 10-15 ng/mg creatinine
CEMA at day 5, value in brackets ([1]; smoking abstainers): 12 ng/mg creatinine
levels of urinary CEMA ([2]; 0 CPD during 5-day confinement): 38.3 μg/24 h
levels of urinary CEMA ([2]; 5 CPD during 5-day confinement): 93.2 μg/24 h
levels of urinary CEMA [2, 10]: 168.0 μg/24 h
levels of urinary CEMA [2, 11]: 218.0 μg/24 h
CEMA excreted (mean±SD) ([2]; non-smokers): 4.6 ± 35 µg/L
CEMA excreted (second value, 'or') ([2]; non-smokers): 1.9 µg/L
urinary excretion of CEMA, range ([2]; non-smokers): below 2 ng/mL
CEMA excreted (mean±SD) ([2]; smokers): 187 ± 181 µg/L
CEMA excreted (second value, 'or') ([2]; smokers): 184 µg/L
urinary excretion of CEMA, range ([2]; smokers): 20 to 205 ng/mL
lowering of CEMA levels in urine ([2]; smoking cessation studies of 5 to 8 days): 7- to 10 fold

O=NN1CCC[C@H]1c1cccnc1 [NNN]
detectability in the urine of non-smokers [3]: Neither NNAL nor NNN are in principle detectable

C[N+]1([O-])CCC[C@H]1c1cccnc1 (stereo partly shown) [nicotine-1′-N-oxide]
share of the nicotine absorbed by smokers (minor metabolite) ([4]; in vivo): 4-7%

CN(CCCC(O)c1cccnc1)N=O (stereo not shown) [Total NNAL, 4-(methylnitrosamino)-1-(3-pyridyl)-1-butanol]
Total NNAL (pg/mL) SW ([5]; SW arm, Day 5, IQR): 17 to 41 pg/mL
total NNAL levels in smoking abstainers ([5]; between day 5 and day 30): 2.5 to 46 pg/mL
baseline total NNAL, range [1, 8]: 84-131 pg/mg creatinine
baseline total NNAL, value in brackets [1, 8]: 105 pg/mg creatinine
average increase at day 5 compared to baseline [1, 8]: 3.9%
change at day 5 compared to baseline, range [1, 8]: −2.8% to 10.5%
total NNAL at day 5, range [1, 8]: 85-133 pg/mg creatinine
total NNAL at day 5, value in brackets [1, 8]: 107 pg/mg creatinine
baseline total NNAL, range [1, 9]: 95-129 pg/mg creatinine
baseline total NNAL, value in brackets [1, 9]: 111 pg/mg creatinine
average decrease at day 5 compared to baseline [1, 9]: −54%
change at day 5 compared to baseline, range [1, 9]: −57% to −51%
total NNAL at day 5, range [1, 9]: 42-58 pg/mg creatinine
total NNAL at day 5, value in brackets [1, 9]: 49 pg/mg creatinine
baseline total NNAL, range ([1]; smoking abstainers): 94-150 pg/mg creatinine
baseline total NNAL, value in brackets ([1]; smoking abstainers): 119 pg/mg creatinine
average decrease at day 5 compared to baseline ([1]; smoking abstainers): −63.9%
decrease at day 5 compared to baseline, range ([1]; smoking abstainers): −67 to −61%
total NNAL at day 5, range ([1]; smoking abstainers): 31-54 pg/mg creatinine
total NNAL at day 5, value in brackets ([1]; smoking abstainers): 41 pg/mg creatinine
levels of urinary NNAL ([3]; 0 CPD during 5-day confinement): 311 ng/24 h
levels of urinary NNAL ([3]; 5 CPD during 5-day confinement): 422 ng/24 h
levels of urinary NNAL [3, 10]: 549 ng/24 h
levels of urinary NNAL [3, 11]: 624 ng/24 h
levels of total NNAL ([3]; after 28 days): 0.26 nmol/24 h
levels of total NNAL ([3]; after 42 days): 0.2 nmol/24 h
levels of total NNAL ([3]; baseline): 2.70 nmol/24 h
levels of total NNAL ([3]; day 56): 0.13 nmol/24 h
decrease of NNAL levels ([3]; smoking cessation/abstinence studies lasting 3 to 8 days): 3- to 4 fold
detectability in the urine of non-smokers [3]: Neither NNAL nor NNN are in principle detectable
urine levels in non-smokers using other tobacco or nicotine replacement products or exposed to second-hand smoke ([3]; urine): ~0.1 nmol
half-life ([3]; usually measured in the urine, estimated): 17 h

CN1C(=O)CC[C@H]1c1cccnc1 [Free Cotinine, cotinine]
Free Cotinine (ng/mL) SA ([5]; Day 2, IQR, listed as cotinine): 339 to 959 ng/mL
Free Cotinine (ng/mL) SA ([5]; Day 2, IQR, listed as free cotinine): 128 to 313 ng/mL
concentration at 2 day ([5]; SW arm, Day 2, IQR, read-out: Free Cotinine (ng/mL) SW): 546 to 1160 ng/mL
concentration at 2 day ([5]; day 2, read-out: cotinine levels in conventional cigarette smokers): 459 to 1350 ng/mL
cotinine levels indicative of heavy smoker status ([6]; consuming more than 20 cigarettes a day): above 300 ng/mL
cotinine levels indicative of no active smoking ([6]; in vivo): < 10 ng/mL
cotinine levels in active smokers ([6]; saliva): ≥ 100 ng/mL
detectability after smoking abstinence ([6]; urine, saliva or blood): no longer detectable in urine, saliva or blood after about two days of smoking abstinence
cotinine levels in active smokers ([6]; urine): ≥ 500 ng/mL
in vivo half-life ([4]; in vivo): about 20 hours
total clearance ([4]; in vivo): 45 mL/min
half-life [4, 12]: 17.5 h
share of the dose of nicotine accounted for by the metabolite [7]: about 15%

CN1C(=O)[C@H](O)C[C@H]1c1cccnc1 (relative stereo) [trans-3′-hydroxycotinine]
total clearance ([4]; in vivo): about 82 mL min-1
half-life [4, 12]: 6.6 h
share of the dose of nicotine accounted for by the metabolite [7]: 40-60%

CN1CCCC1c1cccnc1 (stereo not shown) [nicotine]
half-life ([4]; in vivo, iv): 2.3 h
share of the inhaled amount metabolized by the liver (first pass effect) ([4]; in vivo): 80-90%
total clearance ([4]; in vivo): about 1200 mL min-1
